Experiments:
[1] = test system: LPS induced TNF-α response; experiment: In vivo screening model of LPS induced TNF-α response in mice; conditions: Mus musculus, mice (C3H/HeN), dosed 1 hour prior to LPS, plasma TNF-α 80-90 minutes after LPS, vs LPS treated control group, read-out: In vivo inhibition of LPS induced TNF-α production (in %)
Description: In Vivo Screening Model of LPS Induced TNF-α Response in Mice
To study the effect of compounds of the present invention in vivo, an in vivo screening model of LPS induced TNF-α response in mice was set up as follows: Groups of 6 mice (C3H/HeN, female, about 8 weeks (20 g), Bomholtgaard) were dosed with test compounds in suspension vehicle 1 hour prior to LPS administration (LPS from E. coli 055:B5, L-4005, Sigma). At time 0, the mice were dosed ip with 1.0 mg LPS/kg. After anesthetization with Hypnorm/Dormicum, the mice were bled from the periorbital venous plexus 80-90 minutes after LPS administration. The blood samples were sampled in EDTA stabilised tubes and centrifuged at 4000 rpm for 10 minutes at 4° C. The plasma level of TNF-α was analysed by ELISA. Compound 156 of WO 98/32730 was used as reference compound. The plasma level of TNF-α was determined using a sandwich ELISA. Microtiter plates were coated with a monoclonal antibody against mouse TNF-α, washed and blocked with a casein buffer. Samples of mouse TNF-α recombinant standards were added to the wells of the microtiter plates and incubated. All standards were tested in triplicate, all plasma samples in single. After sample and standard incubation, the plates were washed and incubated with biotinylated polyclonal secondary antibody against mouse TNF-α and washed. Enzyme conjugate was added to all wells and incubated. Substrate was added and the enzyme/substrate reaction stopped after 15 minutes at room temperature with 1M H2SO4. The colour development (OD) was measured at 450 nm on an ELISA reader and the background OD at 620 nm was subtracted. […] The results of the tested compounds are indicated as a percentage inhibition compared to an LPS treated control group. Compounds were tested at 10 mg/kg. The Mann-Whitney test was used to compare drug treated groups to the LPS treated control group (p<0.05).

IL-1β = experiment: Inhibition of IL-1β secretion in LPS stimulated peripheral blood mononuclear cells; type: cell-based; conditions: PBMC; LPS stimulated human peripheral blood mononuclear cells, 18 hours, ELISA; read-out: The median inhibition concentration (IC50, nM) of IL-1β
Description: (§1) To study the effect of compounds of the present invention in vitro, the inhibition of IL-1β and TNF-α secretion was determined using the following procedure:
(§2) Cytokine production was measured in the media from lipopolysaccharide (LPS) stimulated peripheral blood mononuclear cells. The mononuclear cells were isolated from human peripheral blood by Lymphoprep® (Nycomed, Norway) fractionation and suspended in RPMI 1640 (growth medium) with foetal calf serum (FCS, 2%), at a concentration of 5×10^5 cells/ml. The cells were incubated in 24-well tissue culture plates in 1 ml aliquots. Test compounds were dissolved in dimethylsulfoxide (DMSO, 10 mM) and were diluted with the medium. Compounds were added to the cells for 30 minutes, then LPS ([…] final concentration) was added. The plates were incubated for 18 hours, and the concentration of IL-β and TNF-α in the medium was determined by enzyme-linked immunosorbent assays. The median inhibitory concentrations (IC50) of the compounds were calculated.

TNF-α = experiment: Inhibition of TNF-α secretion in LPS stimulated peripheral blood mononuclear cells; type: cell-based; conditions: PBMC; LPS stimulated human peripheral blood mononuclear cells, 18 hours, ELISA; read-out: The median inhibition concentration (IC50, nM) of TNF-α
Description: as §1, §2

Row | SMILES | IC50 (IL-1β) [nM] | IC50 (TNF-α) [nM] | inhibition at 10 mg/kg [1] [%]
1 | Cc1cc(F)ccc1Nc1ccc(C(=O)c2cc(C(=O)NCC3CCCO3)ccc2C)c(Cl)c1 (stereo not drawn) [Compound 104, 3-[2-Chloro-4-(4-fluoro-2-methylphenylamino)benzoyl]-4-methyl-N-(tetrahydrofuran-2-ylmethyl)benzamide] | 2 | 1.3 | 95
2 | Cc1ccc(C(=O)NCCO)cc1C(=O)c1ccc(Nc2ccc(Br)cc2N)cc1Cl [Compound 113, 3-[4-(2-Amino-4-bromophenylamino)-2-chlorobenzoyl]-N-(2-hydroxyethyl)-4-methylbenzamide] | 4 | 1.8 | 83
3 | COCCOCC(=O)Nc1ccc(C)c(C(=O)c2ccc(Nc3ccc(F)cc3F)cc2Cl)c1 [Compound 243, N-{3-[2-Chloro-4-(2,4-difluoro-phenylamino)-benzoyl]-4-methyl-phenyl}-2-(2-methoxy-ethoxy)-acetamide] | 2.8 | 1.3 | –
4 | Cc1ccc(NC(=O)CCO)cc1C(=O)c1ccc(Nc2ccc(F)cc2F)cc1Cl [Compound 245, N-{3-[2-Chloro-4-(2,4-difluoro-phenylamino)-benzoyl]-4-methyl-phenyl}-3-hydroxy-propionamide] | 3.5 | 0.9 | –
5 | Cc1ccc(NC(=O)c2ccccc2O)cc1C(=O)c1ccc(Nc2ccc(F)cc2F)cc1Cl [Compound 247, N-{3-[2-Chloro-4-(2,4-difluoro-phenylamino)-benzoyl]-4-methyl-phenyl}-2-hydroxy-benzamide] | 5.6 | 1.4 | –
6 | CCOC(=O)CNC(=O)Nc1ccc(C)c(C(=O)c2ccc(Nc3ccc(F)cc3F)cc2Cl)c1 [Compound 261, (3-{3-[2-Chloro-4-(2,4-difluoro-phenylamino)-benzoyl]-4-methyl-phenyl}-ureido)-acetic acid ethyl ester] | 2.2 | 1 | –
7 | COc1cccc(NC(=O)Nc2ccc(C)c(C(=O)c3ccc(Nc4ccc(F)cc4F)cc3Cl)c2)c1 [Compound 262, 1-{3-[2-Chloro-4-(2,4-difluoro-phenylamino)-benzoyl]-4-methyl-phenyl}-3-(3-methoxy-phenyl)-urea] | 2 | 0.6 | –
8 | Cc1ccc(NC(=O)NCCc2ccccc2)cc1C(=O)c1ccc(Nc2ccc(F)cc2F)cc1Cl [Compound 272, 1-{3-[2-Chloro-4-(2,4-difluoro-phenylamino)-benzoyl]-4-methyl-phenyl}-3-phenethyl-urea] | 3.2 | 1.4 | –
9 | Cc1ccc(NC(=O)NC(C)C)cc1C(=O)c1ccc(Nc2ccc(F)cc2F)cc1Cl [Compound 275, 1-{3-[2-Chloro-4-(2,4-difluoro-phenylamino)-benzoyl]-4-methyl-phenyl}-3-isopropyl-urea] | 5 | 0.3 | –
10 | Cc1ccc(NC(=O)OCc2ccccc2)cc1C(=O)c1ccc(Nc2ccc(F)cc2F)cc1Cl [Compound 277, {3-[2-Chloro-4-(2,4-difluoro-phenylamino)-benzoyl]-4-methyl-phenyl}-carbamic acid benzyl ester] | 2.5 | 0.8 | –
11 | Cc1ccc(-c2cccc(CO)c2)cc1C(=O)c1ccc(Nc2ccc(F)cc2F)cc1Cl [Compound 282, [2-Chloro-4-(2,4-difluoro-phenylamino)-phenyl]-(3′-hydroxymethyl-4-methyl-biphenyl-3-yl)-methanone] | 5.6 | 0.6 | –
12 | COc1ccc(CO)cc1C(=O)c1ccc(Nc2ccc(F)cc2F)cc1Cl [Compound 335, [2-Chloro-4-(2,4-difluoro-phenylamino)-phenyl]-(5-hydroxymethyl-2-methoxy-phenyl)-methanone] | 2.7 | 2.5 | –
13 | COc1ccc(COC(C)=O)cc1C(=O)c1ccc(Nc2ccc(F)cc2F)cc1Cl [Compound 336, Acetic acid 3-[2-chloro-4-(2,4-difluoro-phenylamino)-benzoyl]-4-methoxy-benzyl ester] | 5 | 2 | –
14 | Cc1ccc(C(=O)O)cc1C(=O)c1ccc(Nc2ccc(F)cc2F)cc1Cl [Compound 424, 3-[2-Chloro-4-(2,4-difluorophenylamino)benzoyl]-4-methylbenzoic acid] | – | – | 44
15 | Cc1ccccc1C(=O)c1ccc(Nc2ccccc2N)cc1Cl [Ref. comp. a, 4-(2-aminophenylamino)-2-chloro-2′-methylbenzophenone, reference compound] | – | – | 23
16 | Cc1ccccc1C(=O)c1ccc(Nc2cccc(F)c2C)cc1Cl [Ref. comp. f, 2-Chloro-4-(3-fluoro-2-methyl-phenylamino)-2′-methylbenzophenone, reference compound] | 13 | 4 | –

More lines, in order of falling IC50 (IL-1β), values ahead:

Row | IC50 (IL-1β) [nM] | IC50 (TNF-α) [nM] | SMILES | inhibition at 10 mg/kg [1] [%]
17 | 1.6 | 1.1 | Cc1ccc(NC(=O)C2CC(=O)NC(=O)N2)cc1C(=O)c1ccc(Nc2ccc(F)cc2F)cc1Cl (stereo not drawn) [Compound 249, 2,6-Dioxo-hexahydro-pyrimidine-4-carboxylic acid {3-[2-chloro-4-(2,4-difluoro-phenylamino)-benzoyl]-4-methyl-phenyl}-amide] | –
18 | 1.4 | 0.5 | CCC(=O)Nc1ccc(C)c(C(=O)c2ccc(Nc3ccc(F)cc3F)cc2Cl)c1 [Compound 242, N-{3-[2-Chloro-4-(2,4-difluoro-phenylamino)-benzoyl]-4-methyl-phenyl}-propionamide] | –
19 | 1.4 | 0.6 | CC(=O)Nc1cccc(-c2ccc(C)c(C(=O)c3ccc(Nc4ccc(F)cc4F)cc3Cl)c2)c1 [Compound 285, N-{3′-[2-Chloro-4-(2,4-difluoro-phenylamino)-benzoyl]-4′-methyl-biphenyl-3-yl}-acetamide] | –
20 | 1.3 | 0.5 | Cc1ccc(NC(=O)CCN2CCOCC2)cc1C(=O)c1ccc(Nc2ccc(F)cc2F)cc1Cl [Compound 244, N-{3-[2-Chloro-4-(2,4-difluoro-phenylamino)-benzoyl]-4-methyl-phenyl}-3-morpholin-4-yl-propionamide] | –
21 | 1 | 0.7 | Cc1ccc(NC(=O)CC2NC(=O)NC2=O)cc1C(=O)c1ccc(Nc2ccc(F)cc2F)cc1Cl (stereo not drawn) [Compound 248, N-{3-[2-Chloro-4-(2,4-difluoro-phenylamino)-benzoyl]-4-methyl-phenyl}-2-(2,5-dioxo-imidazolidin-4-yl)-acetamide] | –
22 | 1 | 0.3 | CCOC(=O)CCNC(=O)Nc1ccc(C)c(C(=O)c2ccc(Nc3ccc(F)cc3F)cc2Cl)c1 [Compound 265, 3-(3-{3-[2-Chloro-4-(2,4-difluoro-phenylamino)-benzoyl]-4-methyl-phenyl}-ureido)-propionic acid ethyl ester] | –
23 | 1 | 0.4 | CCCCNC(=O)Nc1ccc(C)c(C(=O)c2ccc(Nc3ccc(F)cc3F)cc2Cl)c1 [Compound 271, 1-Butyl-3-{3-[2-chloro-4-(2,4-difluoro-phenylamino)-benzoyl]-4-methyl-phenyl}-urea] | –
24 | 0.8 | 0.6 | CCNC(=O)Nc1ccc(C)c(C(=O)c2ccc(Nc3ccc(F)cc3F)cc2Cl)c1 [Compound 269, 1-{3-[2-Chloro-4-(2,4-difluoro-phenylamino)-benzoyl]-4-methyl-phenyl}-3-ethyl-urea] | –
25 | 0.6 | 0.6 | Cc1ccc(NC(=O)CCS(C)(=O)=O)cc1C(=O)c1ccc(Nc2ccc(F)cc2F)cc1Cl [Compound 252, N-{3-[2-Chloro-4-(2,4-difluoro-phenylamino)-benzoyl]-4-methyl-phenyl}-3-methanesulfonyl-propionamide] | –
26 | 0.6 | 0.5 | CCOC(=O)Nc1ccc(C)c(C(=O)c2ccc(Nc3ccc(F)cc3F)cc2Cl)c1 [Compound 279, {3-[2-Chloro-4-(2,4-difluoro-phenylamino)-benzoyl]-4-methyl-phenyl}-carbamic acid ethyl ester] | –
27 | 0.4 | 0.2 | C=CCNC(=O)Nc1ccc(C)c(C(=O)c2ccc(Nc3ccc(F)cc3F)cc2Cl)c1 [Compound 267, 1-Allyl-3-{3-[2-chloro-4-(2,4-difluoro-phenylamino)-benzoyl]-4-methyl-phenyl}-urea] | –

Source: US7977387B2, “Aminobenzophenone compounds” (Leo Pharma A/S, priority 2003, dated 2011)
